Literature values as cited in patent US20050101653A1, “Combination therapy for the treatment of migraine” (priority 1999, published 2005).

Tested on: carotid vascular resistance
Conditions: anaesthetized dog

SMILES: CNS(=O)(=O)Cc1ccc2[nH]cc(CCN(C)C)c2c1 [Sumatriptan, sumatriptan]
- effect on carotid vascular resistance: selective increase in carotid vascular resistance
